Data: ChEMBL document CHEMBL4507269, “Data for DCP probe BAY-386” (2021)

Experiments:
[1] = target: Cyclin-dependent kinase 2 homolog (Plasmodium falciparum (isolate 3D7)) (UniProt P61075); conditions: Compound concentration 1000.0 nM
[2] = target: Glycogen synthase kinase-3 beta (Homo sapiens) (UniProt P49841); conditions: Compound concentration 1000.0 nM
[3] = target: Mast/stem cell growth factor receptor Kit (Homo sapiens) (UniProt P10721); conditions: Compound concentration 1000.0 nM
[4] = target: Proto-oncogene tyrosine-protein kinase ROS (Homo sapiens) (UniProt P08922); conditions: Compound concentration 1000.0 nM
[5] = target: Tyrosine-protein kinase receptor UFO (Homo sapiens) (UniProt P30530); conditions: Compound concentration 1000.0 nM
[6] = target: Alpha-2C adrenergic receptor (Homo sapiens) (UniProt P18825); conditions: Compound concentration 10.0 uM
[7] = target: GABA-A receptor; anion channel (Rattus norvegicus) (UniProt O09028+P15431+P18506+P18508+P19969+P20236+P23574+P23576+P28471+P28473+P30191+P62813+P63079+P63138+Q91ZM7+Q9ES14); conditions: Compound concentration 10.0 uM
[8] = target: Tyrosine-protein kinase JAK3 (Homo sapiens) (UniProt P52333); conditions: Compound concentration 1000.0 nM
[9] = target: Serine/threonine-protein kinase PLK2 (Homo sapiens) (UniProt Q9NYY3); conditions: Compound concentration 1000.0 nM
[10] = target: Protein kinase C epsilon type (Homo sapiens) (UniProt Q02156); conditions: Compound concentration 1000.0 nM
[11] = target: Mitogen-activated protein kinase kinase kinase 1 (Homo sapiens) (UniProt Q13233); conditions: Compound concentration 1000.0 nM
[12] = target: Wee1-like protein kinase 2 (Homo sapiens) (UniProt P0C1S8); conditions: Compound concentration 1000.0 nM
[13] = target: Dual specificity protein kinase CLK1 (Homo sapiens) (UniProt P49759); conditions: Compound concentration 1000.0 nM
[14] = target: Protein kinase C eta type (Homo sapiens) (UniProt P24723); conditions: Compound concentration 1000.0 nM
[15] = target: Mitogen-activated protein kinase kinase kinase 11 (Homo sapiens) (UniProt Q16584); conditions: Compound concentration 1000.0 nM
[16] = target: Calcium/calmodulin-dependent protein kinase type II subunit gamma (Homo sapiens) (UniProt Q13555); conditions: Compound concentration 1000.0 nM
[17] = target: Mitogen-activated protein kinase kinase kinase kinase 3 (Homo sapiens) (UniProt Q8IVH8); conditions: Compound concentration 1000.0 nM
[18] = target: Histamine H2 receptor (Homo sapiens) (UniProt P25021); test: H2 (h) Eurofins-Cerep Cellular and Nuclear Receptor Functional Assays; conditions: Compound concentration 10.0 uM
[19] = target: Ribosomal protein S6 kinase alpha-4 (Homo sapiens) (UniProt O75676); conditions: Compound concentration 1000.0 nM
[20] = system: Phosphatidylinositol 4,5-bisphosphate 3-kinase catalytic subunit alpha isoform (Homo sapiens), P42336 [H1047Y]; conditions: Compound concentration 1000.0 nM
[21] = target: Dual specificity mitogen-activated protein kinase kinase 5 (Homo sapiens) (UniProt Q13163); conditions: Compound concentration 1000.0 nM
[22] = target: Rho-associated protein kinase 1 (Homo sapiens) (UniProt Q13464); conditions: Compound concentration 1000.0 nM
[23] = target: Mitogen-activated protein kinase 12 (Homo sapiens) (UniProt P53778); conditions: Compound concentration 1000.0 nM
[24] = target: Receptor-type tyrosine-protein kinase FLT3 (Homo sapiens) (UniProt P36888); conditions: Compound concentration 1000.0 nM
[25] = target: Tyrosine-protein kinase Fes/Fps (Homo sapiens) (UniProt P07332); conditions: Compound concentration 1000.0 nM
[26] = target: Serine/threonine-protein kinase PknB (Mycobacterium tuberculosis) (UniProt P9WI81); conditions: Compound concentration 1000.0 nM
[27] = target: Mitogen-activated protein kinase kinase kinase kinase 4 (Homo sapiens) (UniProt O95819); conditions: Compound concentration 1000.0 nM
[28] = target: Ephrin type-A receptor 7 (Homo sapiens) (UniProt Q15375); conditions: Compound concentration 1000.0 nM
[29] = target: Serine/threonine-protein kinase PLK3 (Homo sapiens) (UniProt Q9H4B4); conditions: Compound concentration 1000.0 nM
[30] = target: Cytoplasmic tyrosine-protein kinase BMX (Homo sapiens) (UniProt P51813); conditions: Compound concentration 1000.0 nM
[31] = target: Serine/threonine-protein kinase Nek10 (Homo sapiens) (UniProt Q6ZWH5); conditions: Compound concentration 1000.0 nM
[32] = target: Ribosomal protein S6 kinase alpha-4 (Homo sapiens) (UniProt O75676); conditions: Compound concentration 1000.0 nM; remark: listed apart in the source
[33] = system: Mast/stem cell growth factor receptor Kit (Homo sapiens), P10721 [L576P]; conditions: Compound concentration 1000.0 nM
[34] = target: Serine/threonine-protein kinase SIK1 (Homo sapiens) (UniProt P57059); conditions: Compound concentration 1000.0 nM
[35] = target: Mitogen-activated protein kinase 9 (Homo sapiens) (UniProt P45984); conditions: Compound concentration 1000.0 nM
[36] = system: Mast/stem cell growth factor receptor Kit (Homo sapiens), P10721 [V559D,V654A]; conditions: Compound concentration 1000.0 nM
[37] = target: Mitogen-activated protein kinase kinase kinase 7 (Homo sapiens) (UniProt O43318); conditions: Compound concentration 1000.0 nM
[38] = target: Casein kinase II subunit alpha (Homo sapiens) (UniProt P68400); conditions: Compound concentration 1000.0 nM
[39] = target: Serine/threonine-protein kinase 38 (Homo sapiens) (UniProt Q15208); conditions: Compound concentration 1000.0 nM
[40] = system: Receptor-type tyrosine-protein kinase FLT3 (Homo sapiens), P36888 [D835Y]; conditions: Compound concentration 1000.0 nM
[41] = target: Non-receptor tyrosine-protein kinase TYK2 (Homo sapiens) (UniProt P29597); conditions: Compound concentration 1000.0 nM
[42] = target: Interleukin-1 receptor-associated kinase 1 (Homo sapiens) (UniProt P51617); conditions: Compound concentration 1000.0 nM
[43] = target: Serine/threonine-protein kinase LATS1 (Homo sapiens) (UniProt O95835); conditions: Compound concentration 1000.0 nM

Chain of Ribosomal protein S6 kinase alpha-4 (Homo sapiens) (O75676 whole entry, looked up, canonical isoform): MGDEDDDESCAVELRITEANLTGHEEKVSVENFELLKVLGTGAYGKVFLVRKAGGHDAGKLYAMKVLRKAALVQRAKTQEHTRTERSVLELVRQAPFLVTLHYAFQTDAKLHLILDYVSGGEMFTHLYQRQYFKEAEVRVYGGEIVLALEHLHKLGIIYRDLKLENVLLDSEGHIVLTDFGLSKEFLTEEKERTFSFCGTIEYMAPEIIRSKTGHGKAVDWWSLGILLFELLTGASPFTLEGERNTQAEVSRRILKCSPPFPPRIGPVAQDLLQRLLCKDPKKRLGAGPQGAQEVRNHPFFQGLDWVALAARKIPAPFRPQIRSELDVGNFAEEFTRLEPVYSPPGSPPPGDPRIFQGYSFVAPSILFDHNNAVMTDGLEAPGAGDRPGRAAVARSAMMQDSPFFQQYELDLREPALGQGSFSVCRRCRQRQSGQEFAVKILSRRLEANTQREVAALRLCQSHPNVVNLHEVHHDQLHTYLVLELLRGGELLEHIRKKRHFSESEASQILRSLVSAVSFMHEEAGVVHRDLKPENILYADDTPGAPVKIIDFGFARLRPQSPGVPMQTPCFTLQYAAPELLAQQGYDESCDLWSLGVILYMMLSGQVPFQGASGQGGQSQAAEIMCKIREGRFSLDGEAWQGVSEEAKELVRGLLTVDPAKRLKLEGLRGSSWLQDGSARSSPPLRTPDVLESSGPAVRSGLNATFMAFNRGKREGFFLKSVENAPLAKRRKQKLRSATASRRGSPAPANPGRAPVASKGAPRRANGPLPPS
Chain of Histamine H2 receptor (Homo sapiens) (P25021 whole entry): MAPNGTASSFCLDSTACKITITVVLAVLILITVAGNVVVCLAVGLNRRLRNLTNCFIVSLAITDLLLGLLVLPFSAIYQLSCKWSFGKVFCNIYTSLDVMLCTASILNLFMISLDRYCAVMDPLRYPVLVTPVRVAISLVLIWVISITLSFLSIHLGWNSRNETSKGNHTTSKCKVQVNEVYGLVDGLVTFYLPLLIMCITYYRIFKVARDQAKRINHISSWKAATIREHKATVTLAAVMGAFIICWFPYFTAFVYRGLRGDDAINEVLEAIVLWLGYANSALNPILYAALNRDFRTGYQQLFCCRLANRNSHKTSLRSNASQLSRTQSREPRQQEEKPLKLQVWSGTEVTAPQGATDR
Chain of Rho-associated protein kinase 1 (Homo sapiens) (Q13464 2-1354 limits assumed): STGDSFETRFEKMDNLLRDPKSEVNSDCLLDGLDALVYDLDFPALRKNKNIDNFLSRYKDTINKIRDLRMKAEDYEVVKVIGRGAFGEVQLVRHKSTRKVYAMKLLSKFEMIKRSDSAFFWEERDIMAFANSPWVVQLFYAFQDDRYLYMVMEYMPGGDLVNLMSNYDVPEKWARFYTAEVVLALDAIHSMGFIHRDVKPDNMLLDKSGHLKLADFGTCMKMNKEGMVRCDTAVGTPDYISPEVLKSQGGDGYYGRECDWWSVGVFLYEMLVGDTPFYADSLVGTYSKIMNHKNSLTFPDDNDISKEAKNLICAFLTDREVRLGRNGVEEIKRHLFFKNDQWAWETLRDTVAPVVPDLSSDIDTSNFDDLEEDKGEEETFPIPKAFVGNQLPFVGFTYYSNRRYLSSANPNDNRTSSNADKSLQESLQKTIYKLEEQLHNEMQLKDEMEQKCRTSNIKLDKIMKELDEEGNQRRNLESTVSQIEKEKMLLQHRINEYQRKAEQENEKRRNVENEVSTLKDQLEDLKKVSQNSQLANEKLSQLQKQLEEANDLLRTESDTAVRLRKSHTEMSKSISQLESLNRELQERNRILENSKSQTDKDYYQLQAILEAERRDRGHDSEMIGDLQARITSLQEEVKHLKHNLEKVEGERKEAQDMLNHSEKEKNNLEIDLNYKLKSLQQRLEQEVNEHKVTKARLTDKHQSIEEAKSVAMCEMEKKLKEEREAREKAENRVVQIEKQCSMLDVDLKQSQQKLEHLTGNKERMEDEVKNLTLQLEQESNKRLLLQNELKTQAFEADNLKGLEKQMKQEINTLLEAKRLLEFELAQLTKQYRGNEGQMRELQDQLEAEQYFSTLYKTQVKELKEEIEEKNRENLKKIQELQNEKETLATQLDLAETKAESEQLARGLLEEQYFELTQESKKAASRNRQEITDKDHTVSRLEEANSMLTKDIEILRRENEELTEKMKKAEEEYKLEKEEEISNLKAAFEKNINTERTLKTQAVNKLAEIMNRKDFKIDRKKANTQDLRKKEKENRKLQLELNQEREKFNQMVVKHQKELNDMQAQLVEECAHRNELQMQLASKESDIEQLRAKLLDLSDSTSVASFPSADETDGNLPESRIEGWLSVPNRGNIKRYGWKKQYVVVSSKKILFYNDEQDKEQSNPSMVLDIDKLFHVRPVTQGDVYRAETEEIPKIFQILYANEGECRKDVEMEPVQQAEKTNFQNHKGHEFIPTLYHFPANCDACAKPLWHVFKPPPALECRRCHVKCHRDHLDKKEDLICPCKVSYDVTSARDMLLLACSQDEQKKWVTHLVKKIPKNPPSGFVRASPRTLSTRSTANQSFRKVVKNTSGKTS
Chain of Mast/stem cell growth factor receptor Kit (Homo sapiens), P10721 [V559D,V654A] (P10721 whole entry V559D/V654A): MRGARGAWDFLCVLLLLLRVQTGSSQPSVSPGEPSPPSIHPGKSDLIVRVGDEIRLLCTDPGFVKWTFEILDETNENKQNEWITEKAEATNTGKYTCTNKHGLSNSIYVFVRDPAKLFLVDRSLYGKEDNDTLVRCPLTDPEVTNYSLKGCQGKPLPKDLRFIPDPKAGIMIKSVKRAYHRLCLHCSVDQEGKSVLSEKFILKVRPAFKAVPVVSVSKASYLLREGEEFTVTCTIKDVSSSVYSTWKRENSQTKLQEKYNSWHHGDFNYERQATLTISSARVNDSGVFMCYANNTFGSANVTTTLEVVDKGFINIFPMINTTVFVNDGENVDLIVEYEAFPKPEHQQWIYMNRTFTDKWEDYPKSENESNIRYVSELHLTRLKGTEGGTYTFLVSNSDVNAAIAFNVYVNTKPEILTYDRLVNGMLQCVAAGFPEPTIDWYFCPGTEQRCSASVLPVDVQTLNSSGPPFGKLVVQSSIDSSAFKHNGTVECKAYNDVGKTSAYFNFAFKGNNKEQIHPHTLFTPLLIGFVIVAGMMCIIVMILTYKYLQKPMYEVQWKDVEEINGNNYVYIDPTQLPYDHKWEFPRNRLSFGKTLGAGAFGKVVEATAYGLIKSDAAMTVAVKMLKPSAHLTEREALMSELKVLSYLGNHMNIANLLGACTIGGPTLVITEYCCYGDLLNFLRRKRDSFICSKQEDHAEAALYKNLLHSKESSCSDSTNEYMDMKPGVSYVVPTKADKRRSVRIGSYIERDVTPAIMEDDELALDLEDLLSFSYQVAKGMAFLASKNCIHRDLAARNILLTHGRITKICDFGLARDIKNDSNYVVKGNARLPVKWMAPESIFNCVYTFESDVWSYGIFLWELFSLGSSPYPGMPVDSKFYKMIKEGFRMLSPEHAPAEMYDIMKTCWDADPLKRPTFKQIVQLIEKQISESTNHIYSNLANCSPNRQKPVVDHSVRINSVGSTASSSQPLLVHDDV
Chain of Casein kinase II subunit alpha (Homo sapiens) (P68400 whole entry, looked up): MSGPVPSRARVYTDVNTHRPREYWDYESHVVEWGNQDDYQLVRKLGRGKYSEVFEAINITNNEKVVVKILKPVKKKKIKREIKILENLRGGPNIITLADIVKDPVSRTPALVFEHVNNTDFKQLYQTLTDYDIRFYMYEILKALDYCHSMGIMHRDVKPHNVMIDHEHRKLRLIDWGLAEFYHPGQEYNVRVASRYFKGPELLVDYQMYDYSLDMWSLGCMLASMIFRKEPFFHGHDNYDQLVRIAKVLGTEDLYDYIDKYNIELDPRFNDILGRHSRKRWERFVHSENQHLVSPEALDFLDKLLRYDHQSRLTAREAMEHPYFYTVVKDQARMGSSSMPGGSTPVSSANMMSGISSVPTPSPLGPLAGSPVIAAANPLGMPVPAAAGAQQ
Chain of Mitogen-activated protein kinase kinase kinase 11 (Homo sapiens) (Q16584 whole entry, looked up): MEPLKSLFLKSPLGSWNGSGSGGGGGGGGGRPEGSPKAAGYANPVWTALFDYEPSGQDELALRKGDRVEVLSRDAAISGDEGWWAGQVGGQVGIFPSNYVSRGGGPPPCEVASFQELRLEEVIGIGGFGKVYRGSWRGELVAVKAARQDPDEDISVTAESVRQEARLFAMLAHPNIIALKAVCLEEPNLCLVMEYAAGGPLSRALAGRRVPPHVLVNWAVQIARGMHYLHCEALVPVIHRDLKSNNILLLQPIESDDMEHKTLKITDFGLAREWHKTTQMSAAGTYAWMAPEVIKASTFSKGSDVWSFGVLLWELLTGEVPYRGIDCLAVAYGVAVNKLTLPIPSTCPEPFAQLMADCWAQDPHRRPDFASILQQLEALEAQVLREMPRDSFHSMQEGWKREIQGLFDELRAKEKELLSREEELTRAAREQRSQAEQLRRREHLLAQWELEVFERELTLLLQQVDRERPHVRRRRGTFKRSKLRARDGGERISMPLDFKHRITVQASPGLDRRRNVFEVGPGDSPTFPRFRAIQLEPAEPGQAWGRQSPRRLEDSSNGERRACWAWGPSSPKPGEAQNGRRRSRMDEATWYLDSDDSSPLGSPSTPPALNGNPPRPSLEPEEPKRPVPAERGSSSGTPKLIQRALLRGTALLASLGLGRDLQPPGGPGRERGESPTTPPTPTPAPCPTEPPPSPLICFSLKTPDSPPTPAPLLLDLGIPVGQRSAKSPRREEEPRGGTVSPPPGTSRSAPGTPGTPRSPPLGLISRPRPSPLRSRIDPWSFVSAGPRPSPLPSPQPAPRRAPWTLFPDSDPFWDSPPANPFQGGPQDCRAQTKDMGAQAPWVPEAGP
Chain of Cyclin-dependent kinase 2 homolog (Plasmodium falciparum (isolate 3D7)) (P61075 whole entry): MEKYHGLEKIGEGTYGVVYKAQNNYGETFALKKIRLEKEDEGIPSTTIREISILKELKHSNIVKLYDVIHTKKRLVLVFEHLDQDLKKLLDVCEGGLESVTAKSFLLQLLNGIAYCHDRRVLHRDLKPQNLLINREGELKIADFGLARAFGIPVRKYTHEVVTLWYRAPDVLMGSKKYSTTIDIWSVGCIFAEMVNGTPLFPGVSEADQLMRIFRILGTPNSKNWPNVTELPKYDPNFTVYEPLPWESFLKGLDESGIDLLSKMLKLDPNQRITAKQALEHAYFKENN
Chain of Mast/stem cell growth factor receptor Kit (Homo sapiens) (P10721 whole entry): as the sequence (P10721 whole entry V559D/V654A) above, with D559V, A654V counted along it

With O=C(N1CCS(=O)(=O)CC1)N1C[C@H](c2ccc(OC(F)(F)F)cc2)C[C@H](c2nc(C3CC3)no2)C1 [BAY-386] the residual activity [1] was 100%, the residual activity [2] was 100% and the residual activity [3] was 100%. The residual activity [4] was 100%, the residual activity [5] was 100% and the inhibition [6] was 11.6%. The inhibition [7] was -2.64%, the residual activity [8] was 100% and the residual activity [9] was 100%. It also gave a residual activity [10] of 97%, a residual activity [11] of 100% and a residual activity [12] of 100%. For the same compound, the residual activity [13] was 98%, the residual activity [14] was 100% and the residual activity [15] was 100%. For the same compound, the residual activity [16] was 100%, the residual activity [17] was 100% and the % Inhibition of Control Agonist Response (Mean n=2) [18] was 9.6%. The % of Control Agonist Response (Mean n=2) [18] was -0.7%, the residual activity [19] was 82% and the residual activity [20] was 100%. For the same compound, the residual activity [21] was 100%, the residual activity [22] was 94% and the residual activity [23] was 100%. It also gave a residual activity [24] of 81%, a residual activity [25] of 100% and a residual activity [26] of 100%. For the same compound, the residual activity [27] was 100%, the residual activity [28] was 96% and the residual activity [29] was 98%. It also gave a residual activity [30] of 100%, a residual activity [31] of 81% and a residual activity [32] of 100%. The residual activity [33] was 100%, the residual activity [34] was 99% and the residual activity [35] was 84%. It also gave a residual activity [36] of 100%, a residual activity [37] of 100% and a residual activity [38] of 100%. The residual activity [39] was 100%, the residual activity [40] was 100% and the residual activity [41] was 53%. The residual activity [42] was 92% and the residual activity [43] was 100%.
Cc1noc([C@H]2C[C@@H](c3ccc(C(F)(F)F)cc3)CN(C(=O)N3CCS(=O)(=O)C3)C2)n1 [BAY-448] gave a residual activity [1] of 80%, a residual activity [2] of 92% and a residual activity [3] of 100%. The residual activity [4] was 86%, the residual activity [5] was 100% and the inhibition [6] was 10.5%. For the same compound, the inhibition [7] was 28.4%, the residual activity [8] was 100% and the residual activity [9] was 100%. The residual activity [10] was 100%, the residual activity [11] was 100% and the residual activity [12] was 100%. For the same compound, the residual activity [13] was 100%, the residual activity [14] was 95% and the residual activity [15] was 86%. For the same compound, the residual activity [16] was 100%, the residual activity [17] was 100% and the % Inhibition of Control Agonist Response (Mean n=2) [18] was -2.8%. The % of Control Agonist Response (Mean n=2) [18] was 2.6%, the residual activity [19] was 100% and the residual activity [20] was 95%. It also gave a residual activity [21] of 78%, a residual activity [22] of 100% and a residual activity [23] of 100%. The residual activity [24] was 100%, the residual activity [25] was 100% and the residual activity [26] was 82%. For the same compound, the residual activity [27] was 100%, the residual activity [28] was 100% and the residual activity [29] was 88%. For the same compound, the residual activity [30] was 100%, the residual activity [31] was 84% and the residual activity [32] was 100%. It also gave a residual activity [33] of 100%, a residual activity [34] of 100% and a residual activity [35] of 99%. The residual activity [36] was 100%, the residual activity [37] was 100% and the residual activity [38] was 86%. The residual activity [39] was 100%, the residual activity [40] was 100% and the residual activity [41] was 100%. The residual activity [42] was 100% and the residual activity [43] was 100%.
